Reference: US6699850B2, “Compositions and methods for inhibiting bone resorption” (Merck & Co., Inc., priority 1998, dated 2004)

How the values were obtained:
[1] = system: 34 kDa Mst Kinase fragment; test: In-gel kinase assay of Mst kinase activities in cultured osteoclast-like cells; assay type: cell-based, Murine; conditions: for activation of the 34 kDa Mst Kinase fragment: osteoclast like cells; for blocking of activation of Mst1 cleavage by alendronate monosodium trihydrate: FIG. 5 lanes 3 and 4, 10 μM isoprenoid with 30 μM alendronate monosodium trihydrate
Description: (§1) Murine co-cultures of osteoblasts and marrow cells are prepared using the methods of Wesolowski, et al., Exp Cell Res, (1995), 219, pp. 679-686, which is incorporated by reference herein in its entirety. Bone marrow cells are harvested from 6-week-old male Balb/C mice by flushing marrow spaces of freshly isolated long bones (tibiae and femora) with α-MEM (minimal essential media) containing penicillin/streptomycin (100 I.U./ml of each and 20 mM Hepes buffer). The bone marrow cells are suspended in α-MEM and the cells are filtered through an approximately 70 μm cell strainer. The filtrate is centrifuged at about 300×g for about 7 minutes. The resulting pellet is resuspended in α-MEM supplemented with fetal calf serum (10% v/v) and 10 nM 1, 25-(OH)2 vitamin D3. These bone marrow isolates are added to sub-confluent monolayers of osteoblastic MB 1.8 cells in cell culture plates and cultured for 7 days at 37 °C. in the presence of 5% CO2. Culture media is replenished ever other day. Fusion of the osteoclast precursor cells from bone marrow (with each other) to form multinucleated osteoclast-like cells typically occurs after about 7 days. Osteoclast-like cells are enriched by sequential treatment with collagenase (1 mg/mL in phosphate buffered saline) for one hour at 37° C. and EDTA (0.2 g/L in phosphate buffered saline) for 20 min at 37° C. Non-adherent cells are rinsed away by washing with phosphate buffered saline. Osteoclast-like cells which are resistant to the sequential treatments are present at about 95% purity and are maintained in α-MEM supplemented with fetal calf serum (10% v/v), 10 nM 1,25-(OH)2 vitamin D3, macrophage-colony-stimulating factor (5 ng/mL).
The compounds to be evaluated are prepared as a solution of the desired concentration in α-MEM. Examples of compounds that can be evaluated include nitrogen-containing bisphosphonates such as alendronate monosodium trihydrate, as well as compounds that block the effects of these inhibitors, such as isoprenoid compounds, for example, geranylgeraniol, geranylgeranyl phosphate, geranylgeranyl pyrophosphate, geranylgeranyl acetate, geranylgeranyl propionate, geranylgeranyl benzoate, geranylgeranyl lactate, geranylgeranyl succinate, and geranylgeranyl glutarate. Combinations of compounds can also be evaluated. The solutions of the compounds to be evaluated are added to the cultures for a time period of 17-24 hours. No treatment controls (controls not treated with compounds) are prepared by adding equivalent volumes of α-MEM to the control dishes.
Cells are then harvested and Iysed in a HEPES (N-(2-hydroxyethyl)piperazine-N′-(2-ethansulfonic acid) or Tris buffer containing the following: β-glycerophosphate (50 mM); Na3VO4 (1 mM); NaF (1 mM); Microcystin LR (1 μM); leupeptin (10 μg/ml); aprotinin (10 μg/ml); phenylmethyl sulfonylfluoride (1 mM). Protein concentrations are determined for each lysate and 5-20 μg are loaded into each lane of a SDS-PAGE (sodium dodecyl sulfate-polyacrylamide gel electrophoresis) gel containing Myelin Basic Protein, or another kinase substrate, which has been polymerized into the gel at a concentration between 50-400 μg/ml. Molecular weight standards are also loaded into one or more lanes of the gels. In-gel kinase assays are run according to a standard procedure based on Kameshita and Fujisawa, 1989 (Anal. Biochem. 183:139-143) and of Gotoh et al., 1990 (Eur. J. Biochem. 193: 661-669), both references being incorporated by reference herein in their entirety. The proteins are electrophoresed in the above gels. The gels are then successively soaked in 50 mM HEPES, pH 7.6; 5 mM 2-mercaptoethanol and each of the following (for each wash): (a) 20% isopropanol; (b) no additions; (c) urea (6 M); (d) Urea (3 M); (e) Urea (0.75 M); and Tween 20 (0.05% vol:vol). Kinase reactions are then run by first soaking the gels in 20 mM HEPES, pH 7.6; 20 mM MgCl2; 2 mM DTT and then in the same buffer containing 0.02 M ATP (non-radioactive) with ca. 1000 cpm/pmol ^32P-γ-ATP. […]

[2] = system: osteoclast function; test: Osteoclast cell cultures and bone resorption assays; assay type: cell-based; conditions: with a bisphosphonate such as alendronate monosodium trihydrate; no concentration stated
Description: The compounds are dosed both 5 and 6 days after establishing the culture, and the formation of 250 μm cells are counted using an inverted microscope with a 10×objective and quantitated versus a no treatment control.
as §1, with “Osteoclast-like cells are enriched by sequential treatment with collagenase (1 mg/mL in phosphate buffered saline) for one hour at 37° C. and EDTA (0.2 g/L in phosphate buffered saline) for 20 min at 37° C. Non-adherent cells are rinsed away by washing with phosphate buffered saline. Osteoclast-like cells which are resistant to the sequential treatments are present at about 95% purity and are maintained in α-MEM supplemented with fetal calf serum (10% v/v), 10 nM 1,25-(OH)2 vitamin D3, macrophage-colony-stimulating factor (5 ng/mL).” left out

| Compound | activation of the 34 kDa Mst Kinase fragment ([1]; FIG. 2, 30 μM, about 17 hours) | activation of the 34 kDa Mst Kinase fragment ([1]; FIG. 2, 100 μM, about 17 hours) | blocking of activation of Mst1 cleavage by alendronate monosodium trihydrate [1] | other results |
| --- | --- | --- | --- | --- |
| NCCCC(O)(P(=O)(O)O)P(=O)(O)O [alendronate monosodium trihydrate, 4-amino-1-hydroxybutylidene-1,1-bisphosphonic acid monosodium trihydrate] | activation | activation |  | activation of 34 kDa Mst Kinase fragment immunoprecipitated by anti-Mst and anti-Krs antibody cocktail ([1]; FIG. 1 lane 3, 30 μM, osteoclast-like cells, in-gel kinase assay after immunoprecipitation): activated; activation of the 34 kDa Mst Kinase fragment ([1]; FIG. 4 lane 2, 30 μM): activation; activation of Mst1 cleavage ([1]; FIG. 5 lane 2, 30 μM, myelin basic protein as substrate): activation of Mst1 cleavage |
| CC(O)(P(=O)(O)O)P(=O)(O)O [etidronate disodium] | fail to activate | fail to activate |  |  |
| CC(C)=CCCC(C)=CCCC(C)=CCO [farnesol] |  |  | partially blocked |  |
| CC(C)=CCC/C(C)=C/CC/C(C)=C/CC/C(C)=C/CO [geranylgeraniol] |  |  | blocked | effect on activation of the 34 kDa Mst Kinase fragment by alendronate monosodium trihydrate ([1]; FIG. 4 lane 3, 10 μM geranylgeraniol with 30 μM alendronate monosodium trihydrate): negates this activation; effect on cleavage of Mst induced by bisphosphonates such as alendronate monosodium trihydrate ([1]; osteoclasts, no concentration stated): prevent the cleavage of Mst; effect on bisphosphonate-induced inhibition of osteoclast function [2]: block the inhibitory effect |
| O=P(O)(O)C(Sc1ccc(Cl)cc1)P(=O)(O)O [tiludronate disodium] | fail to activate | fail to activate |  |  |
